Data as given in patent US20250243176A1, “(S)-1-(1-ACRYLOYLPIPERIDIN-3-YL)-2-FLUORO-5,6,7,8,9,10-HEXAHYDROCYCLO HEPTA[B]INDOLE-4-CARBOXAMIDE, AND RELATED CRYSTALLINE FORMS, COMPOSITIONS, AND METHODS THEREOF” (GB005, Inc., priority 2021, published 2025).

Tests used:
[1] = pKa determination, Sirius T3 titrator (Form III); type: physicochemical; settings: titrations at 25° C., acidic and basic sites
Protocol: In each of the following studies (Examples 6-10), the starting material was Compound 1 (free form, not salt) Form III. The material was a light yellow solid, comprising non-hygroscopic irregular shaped crystal with aggregation. The same analytical methods as described in Example 1 were employed.
pKa was assessed using Sirius T3 titrator. The acidic and basic sites were very weak, and undetectable by Sirius T3.

[2] = Phase 1 single ascending dose plasma pharmacokinetics; type: in vivo, human; settings: for AUC(0-inf) / Cmax / half-life / Tmax: both sexes, human, plasma, fed; for AUC(0-inf) / Cmax: mean; for dose proportionality of exposure (AUCinf): single dose
Protocol: The study investigates the administration of Compound 1 to healthy human subjects, to evaluate the safety, tolerability and PK of single and multiple-escalating doses. Additional objectives include assessing the effect of formulation on PK, the effect of food on PK, the effect of a CYP3A inhibitor on PK and the effect of Compound 1 on CYP3A activity. PK parameters including AUC, AUC, Cmax, and Tmax are determined. An additional exploratory objective evaluates pharmacodynamics, as the time-course of BTK inhibition. The study is conducted with up to 144 healthy male and female subjects, aged 18-55 years, with a body weight over 48 kg, BMI 18.5-30.0 kg/m^2, with no clinically significant abnormalities.
(§1) Part A is a randomized, double-blind, placebo-controlled, single- and -multiple-dose study with staggered dose escalation, administered in the fed state (standard moderate-fat meal). Part A consists of […] (up to 7 single-ascending dose [SAD] cohorts [Cohorts 1-6 & 14], and up to 3 multiple ascending dose [MAD] cohorts [Cohorts 7-9]). Subjects are randomized in a 3:1 ratio per cohort to receive either: Compound 1 Formulation A (N=6 for Cohorts 1-4 and N=9 for Cohorts 5-9 & 14); or placebo (PBO; N=2 for Cohorts 1-4 and N=3 for Cohorts 5-9 & 14).
• Cohorts 1-4: Day 1, all subjects receive a single dose of Formulation A Compound 1 or placebo. • Cohorts 5, 6 & 14: Day −1, all subjects receive placebo (establish baseline ECG assessments). Day 1, subjects receive a single oral dose of Compound 1 or placebo.
Safety is assessed throughout the study and PK and PD are characterized using serial blood samples collected up to 48 hours post-dose for Compound 1 plasma concentrations, BTK target occupancy (TO) and target engagement (TE). Cerebrospinal fluid (CSF) samples are collected at 2 hours post-dose to characterize the relationship between Compound 1 plasma concentrations and CNS penetrance (CSF/Unbound plasma concentration). Compound 1 PK parameters (e.g., AUClast, AUCinf, Cmax, Tmax, t1/2) are estimated by standard noncompartmental methods.
Results: Preliminary pharmacokinetic results from […] are presented, including […] (7 receiving 5 mg, 8 receiving 15 mg, 8 receiving 45 mg, 8 receiving 5 mg+10 mg placebo, 12 receiving 100 mg and 12 receiving 200 mg: randomized in a 3:1 ratio to receive Compound 1 or placebo) in a fed state (moderate-fat meal). […] Preliminary PK parameters are presented in Table 45 (all pharmacokinetic parameters of Table 45 are reported as Mean (% coefficient of variation), except for Tmax and t/2, which are reported as Median (Min, Max)), and in FIG. 25 presenting the mean (SD) plasma concentration-time profiles of Compound 1.

[3] = Phase 1 multiple ascending dose plasma pharmacokinetics; type: in vivo, human; settings: for Tmax / half-life / Cmax / AUC(0-inf): fed; for half-life / Cmax / AUC(0-inf): human, plasma, oral; for half-life: 15 mg; for AUC(0-inf): read-out: AUC0-inf or tau
Excerpt: as §1
• Cohorts 7 and 8: Day 1, all subjects begin once-daily multiple dose administration of Formulation A Compound 1 or placebo for 10 days. • Cohort 9: Day −1, all subjects receive placebo. • Day 1, all subjects begin once-daily multiple dose administration of • Compound 1 or placebo for 10 days.
Results: Preliminary pharmacokinetic results from 1 completed MAD cohort are presented, including 12 subjects receiving 15 mg once daily for 10 days randomized in a 3:1 ratio to receive Compound 1 or placebo) in a fed state (moderate-fat meal). […] Preliminary PK parameters are presented in Table 47 (all pharmacokinetic parameters of […] are reported as Mean (% coefficient of variation), except for Tmax and t1/2, which are reported as Median (Min, Max), and in FIG. 27 showing single and multiple dose plasma profiles (Mean±SD).

[4] = oral, 5 mg, Cohort 1, 5 mg single dose
[5] = oral, 5 mg, Cohort 4, 5 mg (+10 PBO) single dose
[6] = oral, 15 mg, Cohort 2, 15 mg single dose
[7] = oral, 45 mg, Cohort 3, 45 mg single dose
[8] = oral, 100 mg, Cohort 5, 100 mg single dose
[9] = oral, 200 mg, Cohort 6, 200 mg single dose
[10] = both sexes, Cohort 7, 15 mg once daily, Day 1, mean
[11] = Cohort 7, 15 mg once daily, Day 10, mean

pKa [1]: undetectable
AUC(0-inf) [2, 4]: 0.0621 µg·h/mL
Cmax [2, 4]: 0.0225 µg/mL
half-life ([2]; oral, 5 mg, Cohort 1, 5 mg single dose, median, read-out: T1/2 (converted)): 2.77 h
Tmax ([2]; oral, 5 mg, Cohort 1, 5 mg single dose, median, read-out: Tmax): 2 h
AUC(0-inf) [2, 5]: 0.121 µg·h/mL
Cmax [2, 5]: 0.036 µg/mL
half-life ([2]; oral, 5 mg, Cohort 4, 5 mg (+10 PBO) single dose, median, read-out: T1/2 (converted)): 3.33 h
Tmax ([2]; oral, 5 mg, Cohort 4, 5 mg (+10 PBO) single dose, median, read-out: Tmax): 1.75 h
AUC(0-inf) [2, 6]: 0.339 µg·h/mL
Cmax [2, 6]: 0.124 µg/mL
half-life ([2]; oral, 15 mg, Cohort 2, 15 mg single dose, median, read-out: T1/2 (converted)): 3.6 h
Tmax ([2]; oral, 15 mg, Cohort 2, 15 mg single dose, median, read-out: Tmax): 1 h
AUC(0-inf) [2, 7]: 0.859 µg·h/mL
Cmax [2, 7]: 0.283 µg/mL
half-life ([2]; oral, 45 mg, Cohort 3, 45 mg single dose, median, read-out: T1/2 (converted)): 3.4 h
Tmax ([2]; oral, 45 mg, Cohort 3, 45 mg single dose, median, read-out: Tmax): 1.5 h
AUC(0-inf) [2, 8]: 2.29 µg·h/mL
Cmax [2, 8]: 0.555 µg/mL
half-life ([2]; oral, 100 mg, Cohort 5, 100 mg single dose, median, read-out: T1/2 (converted)): 4.29 h
Tmax ([2]; oral, 100 mg, Cohort 5, 100 mg single dose, median, read-out: Tmax): 1.5 h
AUC(0-inf) [2, 9]: 4.48 µg·h/mL
Cmax [2, 9]: 0.814 µg/mL
half-life ([2]; oral, 200 mg, Cohort 6, 200 mg single dose, median, read-out: T1/2 (converted)): 4.5 h
Tmax ([2]; oral, 200 mg, Cohort 6, 200 mg single dose, median, read-out: Tmax): 3 h
Tmax ([2]; po, healthy subjects, single oral dose, SAD cohorts, read-out: mean plasma Tmax): 1 to 3 h
half-life ([2]; po, healthy subjects, single oral dose, SAD cohorts, read-out: terminal half-life): 3 to 4 h
dose proportionality of exposure (AUCinf) ([2]; from 5 to 15 mg): greater than dose-proportional
dose proportionality of exposure (AUCinf) ([2]; from 15 to 200 mg): near dose-proportional
accumulation upon once-daily dosing ([3]; 15 mg once daily for 10 days): Minimal to no accumulation
Tmax ([3]; Cohort 7, 15 mg once daily, Day 1, median): 1.5 br
Tmax ([3]; Cohort 7, 15 mg once daily, Day 10, median): 1.5 br
half-life ([3]; both sexes, MAD cohort, 15 mg once daily for 10 days, read-out: terminal half-life (converted)): ~3 h
Cmax [3, 10]: 0.0858 µg/mL
AUC(0-inf) [3, 10]: 0.312 µg·h/mL
half-life ([3]; Cohort 7, 15 mg once daily, Day 1, median, read-out: T1/2 (converted)): 3.19 h
half-life ([3]; Cohort 7, 15 mg once daily, Day 10, median, read-out: T1/2 (converted)): 3.37 h
Cmax [3, 11]: 0.102 µg/mL
AUC(0-inf) [3, 11]: 0.353 µg·h/mL
SMILES: C=CC(=O)N1CCC[C@@H](c2c(F)cc(C(N)=O)c3[nH]c4c(c23)CCCCC4)C1 [Compound 1, (S)-1-(1-acryloylpiperidin-3-yl)-2-fluoro-5,6,7,8,9,10-hexahydrocyclohepta[b]indole-4-carboxamide]
